The values that follow are results of earlier work, collected in patent US20230170070A1, “SYSTEM AND METHOD FOR PROVIDING FERTILITY ENHANCING DIETARY RECOMMENDATIONS IN INDIVIDUALS WITH SPERM CONDITIONS” (SOCIETE DES PRODUITS NESTLE S.A., priority 2020, published 2023).

For one data set, the system named is sperm cells. The conditions noted are these: excessive alcohol.
A further data set deals with oxidative stress status. The settings on record: exogenous supplementation; both in vitro and in vivo.
Data set [1] relates to semen quality. The settings on record: for semen quality: In RCTs.
The conditions of data set [2]: for pregnancy rate in the female partner: In RCTs.
In data set [3] the test system is semen quality. The conditions noted are these: from cold water fish.
The mark [4] stands for this setting: among men with astheno- or oligoasthenozoospermia.

Like-named read-outs stand apart in the source and are kept apart here.

On to `CCO` [Alcohol], for which, in the data set on sperm cells, the hormones in men entry was “decreases hormones in”; the sperm cells result was “men and degenerates”. For the compound `O=C(O)CCCCC1CCSS1` (stereo not drawn) [Alpha-lipoic acid (ALA), Alpha-lipoic acid], the oxidative stress status result in the data set on oxidative stress status is given as “improve oxidative stress”.

Consider `COc1cc(/C=C/C(=O)CC(=O)/C=C/c2ccc(O)c(OC)c2)ccc1O` [Curcumin], for which the semena quality parameters result in the data set with semen quality [1] (among oligoasthenoteratozoospermic men) is given as “Curcumin improved”. As for `N[C@@H](CCC(=O)N[C@@H](CS)C(=O)NCC(=O)O)C(=O)O` [Glutathione], in the data set with semen quality [1] (glutathione supplementation), the sperm concentration entry is recorded as “Improves sperm”, the sperm morphology entry is listed as “Improves sperm” and the sperm motility entry is listed as “Improves sperm”. `CC(=O)O[C@H](CC(=O)[O-])C[N+](C)(C)C` [L-acetyl carnitine (LAC), L-acetyl carnitine]: in the data set on semen quality [1] (setting [4]), the sperm concentration entry is recorded as “can significantly improve” and the total sperm counts entry was “can significantly improve”. Consider `C[N+](C)(C)C[C@H](O)CC(=O)[O-]` [L-carnitine], for which, in the data set on semen quality [1] (setting [4]), the sperm concentration entry is on record as “can significantly improve” and the total sperm counts entry is on record as “can significantly improve”. With `CC(C)=CCC/C(C)=C/C=C/C(C)=C/C=C/C(C)=C/C=C/C=C(C)/C=C/C=C(C)/C=C/C=C(\C)CCC=C(C)C` [Lycopene], the sperm parameters result in the data set on semen quality [1] (in vivo) is given as “Improve sperm”. Regarding `O[C@H]1[C@H](O)[C@@H](O)[C@H](O)[C@@H](O)[C@H]1O` [Myoinositol], in the data set with semen quality [1] (myoinositol supplementation), the progressive motility result is “increase in sperm”, the sperm concentration result is “increase in sperm” and the sperm count entry was “increase in sperm”.

For the compound `[Se]` [Selenium], the total sperm motility entry with semen quality [1] (compared with placebo) is “increase in total sperm”.

For the compound `O=C1O[C@H]([C@@H](O)CO)C(O)=C1O` [Vitamin C], in the data set on semen quality [1] (in vivo), the progressive sperm motility result is “increase in progressive”. On to `C=C1CC[C@H](O)C/C1=C/C=C1\CCC[C@]2(C)[C@@H]([C@H](C)CCCC(C)C)CC[C@@H]12` [Vitamin D], for which the live birth rate result in data set [2] (among oligozoospermic men, high-dose supplementation compared to placebo) is on record as “uptake. A higher live”. For the compound `[Zn]` [Zinc], the semen quality result with semen quality [1] is recorded as “shown to increase”. Also, in data set [2], the “pregnancy rate in the female partner” value is “shown to increase”. As to Vitamin E, in the data set with semen quality [1], the semen quality result is “been shown to increase”. The “pregnancy rate in the female partner” value in data set [2] is “been shown to increase”.

For isoflavones, in the data set with sperm, the “non-genomic effects on sperm capacitation and acrosome reaction” value is given as “genomic negative”. Consider omega-3 fatty acids, for which, in the data set with semen quality [3], the “influence on sperm morphology” value is “positive influence”.
